Results from patent publication US20220072013A1, “Pharmaceutical Combinations for the Treatment of Cancer” (CA*TX, Inc., priority 2018, published 2022).
Entries after “also recorded” stand apart in the source; their conditions may differ.

What was measured:
[1] = system: intestinal tumors in Apc^Min/+ mice; test: Intestinal tumor development in Apc^Min/+ mice given drug-containing diets; assay type: in vivo; conditions: for decrease in tumor number: analyzed at 12 weeks; for change in tumor size: started before adenoma development (age 4 to 12 weeks)
Procedure: FIG. 1 illustrates the decrease in the number of intestinal tumors in Apc^Min/+ mice given Budesonide- or Sulindac-containing diets for 8 or 4 weeks (from age 4 weeks to age 12 weeks or age 8 weeks to age 12 weeks); bars show % change in tumor number compared to untreated C57BL/6 control mice.
FIG. 2 illustrates the change in size of intestinal tumors in Apc^Min/+ mice that were administered Budesonide- or Sulindac containing diets for 8 or 4 weeks (from age 4 weeks to age 12 weeks or age 8 weeks to age 12 weeks); bars show % change in tumor size compared to untreated C57BL/6 control mice.
Budesonide, a steroidal anti-inflammatory drug active against lung cancer development, was investigated as a drug for CRC. Budesonide was evaluated using the murine model for hereditary CRC (FAP) in humans—Apc^Min/+ mice—which, like FAP patients, carry a germline Apc mutation and which spontaneously develop multiple intestinal tumors. The effects of Budesonide were compared to Sulindac as the “gold standard” for an NSAID drug known to inhibit tumor development in Apc^Min mice. The Apc^Min/+ and control mice (C57BL6) were given Budesonide- or Sulindac-containing diets starting at 4 or 8 weeks of age (corresponding, respectively, to ages before and after intestinal tumor development). At 12 weeks, mice were sacrificed and intestines analyzed for adenomas. […] Without wishing to be bound by any particular theory, it is concluded that Budesonide has strong activity against the development of multiple tumors that would otherwise be induced by a variety of Apc mutations (combinations of inherited 1st hit and acquired 2nd hits), and also regression of many tumors after they had already developed.

[2] = system: global DNA methylation of adenomas in Apc^Min/+ mice; test: Anti-5-methylcytidine immunostaining of small intestine adenomas (global DNA methylation); assay type: in vivo
[3] = system: HT29 (APC mutant) cells; test: DNA methylation (epigenetic) profiling of HT29 cells; assay type: cell-based, human
Procedure: FIG. 5 illustrates that Budesonide increases DNA methylation in human CRC cells. To determine if Budesonide increases DNA methylation in human CRC cells, epigenetic profiling was done on HT29 (APC mutant) cells in response to Budesonide exposure. […] A statistically significant shift in CpG methylation occurred at 235 unique CpG sites (out of 1.9 M that were analyzed).

[4] = system: survivin; test: Survivin mRNA and protein expression in HT-29 cells (RT-PCR, western blot); assay type: cell-based, human; conditions: Sulindac 200 μM
Procedure: RNA and protein expression were measured by RT-PCR and western blot, respectively. FIGS. 3A and 3B show an ethidium bromide-stained gel and graph of quantified data for survivin and Bcl-2 mRNA expression. FIGS. 3C and 3D show a western blot and graph of quantified data for survivin and Bcl-2 protein expression.
Another mechanism attributed to Sulindac's antitumor effects is its ability to induce apoptosis and decrease cell proliferation. This mechanism appears to involve a COX-independent mechanism whereby Sulindac (and other NSAIDs) induce degradation of beta-catenin, inactivation of Tcf-4, reduced expression of an anti-apoptotic protein (survivin; FIG. 3) and increased apoptosis in human CRC cells. […] To that end, survivin and Bcl-2 expression was evaluated in HT-29 cells that were treated with Sulindac (200 μM). RNA and protein expression were measured by RT-PCR and western blot, respectively. FIGS. 3A and 3B show an ethidium bromide-stained gel and graph of quantified data for survivin and Bcl-2 mRNA expression.

[5] = system: HT29 CRC cells; test: Apoptosis in HT29 CRC cells; assay type: cell-based, human
[6] = diet started at 4 weeks of age, prior to establishment of intestinal adenomas
[7] = diet started at 8 weeks of age, after adenoma development

SMILES | decrease in tumor number [1, 6] [%] | decrease in tumor number [1, 7] [%] | change in tumor size [1] | 5-methylcytidine immunostaining signal intensity, increase [2] [fold] | proportion of cells staining positive for 5-methylcytidine [2] | 1 MB domains across the genome showing an increase in methylation versus control ([3]; Budesonide exposure) [%] | unique CpG sites with statistically significant shift in CpG methylation ([3]; out of 1.9 M sites analyzed) | survivin expression [4] | apoptosis [5]
CCCC1O[C@@H]2C[C@H]3[C@@H]4CCC5=CC(=O)C=C[C@]5(C)[C@H]4[C@@H](O)C[C@]3(C)[C@]2(C(=O)CO)O1 (stereo partly drawn) [Budesonide, budesonide] | 88 | 60 | decreased | 1.9 | increase | 69.3 | 235 |  | 
CC1=C(CC(=O)O)c2cc(F)ccc2/C1=C\c1ccc([S+](C)[O-])cc1 (stereo not drawn) [Sulindac] | 90 | 90 | decreased |  |  |  |  | monotonic decrease; also recorded: attenuates expression | induces apoptosis
